Experimental findings from the Kinase Knowledgebase extract (Sharma et al. 2016) are described below.

The experiment deals with ROCK2 (human) (UniProt O75116). Nature of the experiment: Inhibition of ROCK2 Kinase Activity.
ROCK2 (human), sequence (O75116 whole entry, looked up): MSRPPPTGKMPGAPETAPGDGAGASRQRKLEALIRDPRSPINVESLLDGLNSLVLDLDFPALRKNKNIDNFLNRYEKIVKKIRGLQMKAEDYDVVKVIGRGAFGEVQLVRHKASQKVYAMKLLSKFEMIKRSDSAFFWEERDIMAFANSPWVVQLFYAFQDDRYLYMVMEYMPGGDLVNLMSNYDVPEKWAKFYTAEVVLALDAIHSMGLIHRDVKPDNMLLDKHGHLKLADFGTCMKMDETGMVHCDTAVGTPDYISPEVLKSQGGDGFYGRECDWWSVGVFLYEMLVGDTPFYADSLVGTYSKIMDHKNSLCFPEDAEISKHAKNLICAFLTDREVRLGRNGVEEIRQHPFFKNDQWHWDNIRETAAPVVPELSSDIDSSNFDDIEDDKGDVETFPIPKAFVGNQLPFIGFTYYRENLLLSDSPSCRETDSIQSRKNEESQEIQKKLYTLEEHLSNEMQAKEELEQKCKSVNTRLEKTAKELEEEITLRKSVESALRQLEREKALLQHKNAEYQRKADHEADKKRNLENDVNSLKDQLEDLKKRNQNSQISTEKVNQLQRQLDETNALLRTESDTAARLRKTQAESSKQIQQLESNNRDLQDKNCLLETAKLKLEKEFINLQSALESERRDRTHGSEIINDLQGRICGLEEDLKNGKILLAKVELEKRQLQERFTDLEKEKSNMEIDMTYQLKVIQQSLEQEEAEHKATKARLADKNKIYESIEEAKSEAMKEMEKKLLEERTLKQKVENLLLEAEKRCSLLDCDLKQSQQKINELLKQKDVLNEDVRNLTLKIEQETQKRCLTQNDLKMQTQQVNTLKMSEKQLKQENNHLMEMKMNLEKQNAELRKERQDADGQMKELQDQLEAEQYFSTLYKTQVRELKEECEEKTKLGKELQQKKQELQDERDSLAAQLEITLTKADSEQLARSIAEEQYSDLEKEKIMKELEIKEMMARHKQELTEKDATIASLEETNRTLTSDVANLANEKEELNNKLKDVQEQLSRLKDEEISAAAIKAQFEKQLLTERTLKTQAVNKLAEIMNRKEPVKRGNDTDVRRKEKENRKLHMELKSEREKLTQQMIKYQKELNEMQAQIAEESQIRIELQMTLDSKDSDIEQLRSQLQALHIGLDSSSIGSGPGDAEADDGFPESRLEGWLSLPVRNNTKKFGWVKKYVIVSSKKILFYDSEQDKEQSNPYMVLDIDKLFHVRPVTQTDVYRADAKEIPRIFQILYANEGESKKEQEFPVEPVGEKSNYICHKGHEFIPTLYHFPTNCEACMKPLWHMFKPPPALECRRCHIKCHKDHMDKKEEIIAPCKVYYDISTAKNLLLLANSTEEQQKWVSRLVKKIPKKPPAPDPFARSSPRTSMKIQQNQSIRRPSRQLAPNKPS

With `COc1cccc(CN(CCO)C(=O)c2nc3ccc(-c4cn[nH]c4)cc3s2)c1`, the 50% inhibitory concentration (IC50) (usually the concentration that gives 50% inhibition) was determined as 7 nM. This lies in the single-digit nanomolar range.

As for `COc1cccc(OCc2nc3ccc(-c4cn[nH]c4)cc3s2)c1`, the 50% inhibitory concentration (IC50) came out at 42 nM.

With `c1ccc(OCc2nc3ccc(-c4cn[nH]c4)cc3s2)cc1`, the IC50 was 44 nM.

`COc1ccc2c(c1)CC(c1nc3cc(-c4ccnc5[nH]ccc45)ccc3o1)CO2` (centres undefined) showed an IC50 of 518 nM.

For `c1ccc(CCc2nc3ccc(-c4cn[nH]c4)cc3s2)cc1`, the IC50 amounted to 40 nM. This IC50 is about 13-fold lower than that of the compound before.

The compound `NCCC(=O)N1CC(C(=O)Nc2nc3ccc(-c4cn[nH]c4)cc3s2)CC1c1ccccc1` (centres undefined) displayed a 50% inhibitory concentration (IC50) of 29 nM.

Compound `COc1ccc(CNc2nc3ccc(-c4ccncc4)cc3s2)cc1` returned an IC50 of 5000 nM.

For the compound `CN(C)CCN(Cc1cccc(F)c1)C(=O)c1nc2ccc(-c3cn[nH]c3)cc2s1`, the IC50 was found to be 1 nM.

In the case of `COc1cccc(CN(CCN2CCCC2)C(=O)c2nc3ccc(-c4cn[nH]c4)cc3s2)c1`, the IC50 came to 43 nM.

As to `COc1cccc(CN(CCCN(C)C)C(=O)c2nc3ccc(-c4cn[nH]c4)cc3s2)c1`, the IC50 stood at 4.3 nM.

In the case of `O=C(Nc1nc2ccc(-c3cn[nH]c3)cc2s1)C1COc2ccc(F)cc2C1` (centres undefined), the IC50 amounted to 22 nM. Against the preceding compound, the IC50 is about 5.1-fold higher.

In turn, `Nc1nccc(-c2ccc3nc(C4COc5ccccc5O4)oc3c2)n1` (centres undefined) registered an IC50 of 21 nM.

As for `COc1ccc2c(c1)CC(c1nc3ccc(-c4cn[nH]c4)cc3o1)CO2` (centres undefined), the IC50 worked out at 1.5 nM.

In the case of `O=C(Nc1nc2ccc(-c3cn[nH]c3)cc2s1)[C@H]1CNC[C@@H]1c1ccccc1`, the IC50 is 50 nM.

Consider `c1ccc2c(c1)OCC(c1nc3ccc(-c4cn[nH]c4)cc3s1)O2` (centres undefined), for which the IC50 is 17 nM.

For the compound `Cc1n[nH]cc1-c1ccc2nc(C3COc4ccc(F)cc4C3)oc2c1` (centres undefined), the IC50 turned out to be 9 nM. This IC50 is about 1.9-fold lower than that of the compound before.

In turn, `NCC(=O)N1C[C@H](C(=O)Nc2nc3ccc(-c4cn[nH]c4)cc3s2)[C@@H](c2ccccc2)C1` showed an IC50 of 37 nM. Compared with the last compound, the IC50 is about 4.1-fold higher.

For `COc1cccc(CNC(=O)c2nc3ccc(-c4cn[nH]c4)cc3s2)c1`, the IC50 amounted to 21 nM.

For the compound `CN(C)CCCNC(=O)c1ccc2c(c1)CC(c1nc3ccc(-c4cn[nH]c4)cc3s1)CO2` (centres undefined), the IC50 was 0.87 nM.

In turn, `COc1ccc2c(c1)CC(c1nc3ccc(-c4ccnc(N)c4)cc3o1)CO2` (centres undefined) displayed an IC50 of 8 nM. This IC50 is about 9.2-fold higher than that of the compound before.

As to `Nc1cc(-c2ccc3nc(C4COc5ccccc5C4)oc3c2)ccn1` (centres undefined), the half-maximal inhibitory concentration (IC50) stood at 36 nM.

Regarding `Nc1nccc(-c2ccc3nc(C4COc5ccc(F)cc5C4)sc3c2)n1` (centres undefined), the IC50 came to 23 nM.

As to `CN(C)CCNC(=O)c1cccc(CN(C(=O)c2nc3ccc(-c4cn[nH]c4)cc3s2)C2CC2)c1`, the concentration for half-maximal inhibition (IC50) turned out to be 35 nM.

`COc1ccc2c(c1)CC(c1nc3cc(-c4ccncc4)cnc3s1)CO2` (centres undefined) returned an IC50 of 579 nM.

For the compound `CN(C)CCN(Cc1ccccc1)C(=O)c1nc2ccc(-c3cn[nH]c3)cc2s1`, the IC50 is 2 nM.

Compound `COc1ccc2c(c1)CC(c1nc3cc(-c4ccnc(N)n4)ccc3o1)CO2` (centres undefined) gave an IC50 of 933 nM.

`Nc1cc(-c2ccc3nc(C4COc5ccc(F)cc5C4)oc3c2)ccn1` (centres undefined): the half-maximal inhibitory concentration (IC50) came to 18 nM.

As to `COc1ccc2c(c1)CC(c1nc3ccc(-c4c[nH]nc4C)cc3o1)CO2` (centres undefined), the half-maximal inhibitory concentration (IC50) stood at 16 nM.

`Fc1ccc2c(c1)CC(c1nc3ccc(-c4cn[nH]c4)cc3o1)CO2` (centres undefined) returned an IC50 of 30 nM.

The compound `O=C(Nc1nc2ccc(-c3cn[nH]c3)cc2s1)C1COc2ccccc2C1` (centres undefined) had an IC50 of 14 nM.

Compound `COc1ccc2c(c1)CC(c1nc3ccc(-c4ccncc4)cc3o1)CO2` (centres undefined) showed an IC50 of 6 nM. This IC50 lies about 2.3-fold lower than the previous one.

Take `COc1cccc(C(=O)Nc2nc3ccc(-c4ccncc4)cc3s2)c1`: the IC50 stood at 1930 nM.

In turn, `COc1cccc(CN(CCN(C)C)C(=O)Nc2nc3ccc(-c4cn[nH]c4)cc3s2)c1` registered a half-maximal inhibitory concentration (IC50) of 8 nM. This IC50 lies about 240-fold lower than the previous one.

In turn, `COc1ccc2c(c1)CC(c1nc3cc(-c4cn[nH]c4)ccc3o1)CO2` (centres undefined) gave an IC50 of 219 nM. This IC50 is about 27-fold higher than that of the compound before.
